From patent US9365584B2, “Thieno [2,3-B] pyridinedione activators of AMPK and therapeutic uses thereof” (Poxel, priority 2009, dated 2016)

Key:
ob/ob and db/db mice = conditions: 8 day AICAR administration; cited from earlier work
AMPK = AMPK enzyme activity assay (Delfia technology, AMARA peptide substrate); assay type: biochemical; conditions: compound at 30 μM vs AMP at 200 μM
Outline: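 Value is the ratio of compound (30 μM) to AMP (200 μM) response, each as % of basal control. Phosphorylation of the AMARA peptide after AMPK addition was read by Delfia with an anti-phosphoserine antibody.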

| SMILES | reduces blood glucose (ob/ob and db/db mice) [%] | Activity: Ratio between the % of control (basal activity) of compound of formula (1) at 30 μM and the % of control (basal activity) of AMP (natural substrate) at 200 μM (AMPK) |
| --- | --- | --- |
| NC(=O)c1ncn([C@@H]2O[C@H](CO)[C@@H](O)[C@H]2O)c1N [AICAR] | 35 | – |
| COc1c(-c2c(Cl)sc3c2C(=O)C(F)(c2ccc(F)cc2)C(=O)N3)ccc(C)c1F (centres unmarked) [No 227, 2-chloro-5-fluoro-3-(3-fluoro-2-methoxy-4-methyl-phenyl)-5-(4-fluorophenyl)-7H-thieno[2,3-b]pyridine-4,6-dione] | – | B (50%≦B<75%) |
| Cc1ccc(-c2c(Cl)sc3c2C(=O)C(F)(c2ccc(F)cc2)C(=O)N3)c(O)c1F (centres unmarked) [No 228, 2-chloro-5-fluoro-3-(3-fluoro-2-hydroxy-4-methyl-phenyl)-5-(4-fluorophenyl)-7H-thieno[2,3-b]pyridine-4,6-dione] | – | C (C≧75%) |
| COc1c(-c2c(Cl)sc3c2C(=O)C(F)(c2ccccc2)C(=O)N3)ccc(F)c1C (centres unmarked) [No 229, 2-chloro-5-fluoro-3-(4-fluoro-2-methoxy-3-methyl-phenyl)-5-phenyl-7H-thieno[2,3-b]pyridine-4,6-dione] | – | A (0%<A<50%) |
| COc1c(-c2c(Cl)sc3c2C(=O)C(F)(c2ccccc2)C(=O)N3)ccc(C)c1F (centres unmarked) [No 230, 2-chloro-5-fluoro-3-(3-fluoro-2-methoxy-4-methyl-phenyl)-5-phenyl-7H-thieno[2,3-b]pyridine-4,6-dione] | – | A (0%<A<50%) |
| COC1(c2ccccc2)C(=O)Nc2sc(Cl)c(-c3ccc(F)cc3O)c2C1=O (centres unmarked) [No 231, 2-chloro-3-(4-fluoro-2-hydroxy-phenyl)-5-methoxy-5-phenyl-7H-thieno[2,3-b]pyridine-4,6-dione] | – | C (C≧75%) |
| Cc1ccc(-c2c(Cl)sc3c2C(=O)C(Cl)(c2ccccc2)C(=O)N3)c(O)c1F (centres unmarked) [No 232, 2,5-dichloro-3-(3-fluoro-2-hydroxy-4-methyl-phenyl)-5-phenyl-7H-thieno[2,3-b]pyridine-4,6-dione] | – | C (C≧75%) |
| Cc1c(F)ccc(-c2c(Cl)sc3c2C(=O)C(Cl)(c2ccccc2)C(=O)N3)c1O (centres unmarked) [No 233, 2,5-dichloro-3-(4-fluoro-2-hydroxy-3-methyl-phenyl)-5-phenyl-7H-thieno[2,3-b]pyridine-4,6-dione] | – | C (C≧75%) |
